Tested on: IMQ induced psoriasis
Procedure: Test Item Details • 1. Dexamethasone Cat. or Batch no.: BCBM4557V (sigma) • Vehicle for dexamethasone (Veh.1): acetone:ethanol (1:1) • Dose: 0.1 mg/ear & 0.25 mg in back skin • Dose volume: 20 μL/ear & 50 μL on back skin • 2. Crisaborole: PZ0037 (Sigma) • Vehicle (Veh.1): acetone:ethanol (1:1) • Dose: 0.1 mg/ear & 0.25 mg in back skin • Dose volume: 20 μL/ear, 50 μL on back skin • 3. Compound of Formula (I) • Vehicle (Veh.1): acetone:ethanol (1:1) • Dose: 0.1 mg/ear & 0.25 mg in back skin • Dose volume: 20 μL/ear, 50 μL on back skin Dexamethasone and Test Item Preparation and Application: • Strength=5 mg/ml
Application=100 μg/20 pit per each ear+250 μg/50 μL on the back G2 to G4 receive Dexamethasone, Crisaborole or test item: Daily topical treatment (D0-D6): 0.1 mg in 20 μl per ear x both the ears+0.25 mg in 50 μl (on the back) 6-8 hrs after IMQ application.
Disease Induction: Application of 5% IMQ cream 40 mg (back) and 5 mg (per ear—Inner surface) daily from day 0-6.
Treatment: 0.5% Dexamethasone solution: 0.25 mg (back) and 0.1 mg (per ear) 8 hrs post IMQ. • Day −2—Depilation on back region • Day 0—Observations (Body weight; ear thickness using digital microcaliper) • Day 2—Observations (Body weight; ear thickness using digital microcaliper) • Day 4—Observations (Body weight; ear thickness using digital microcaliper) • Day 6—Observations (Body weight; ear thickness using digital microcaliper); Blood collection (PK) and Termination {2 hrs after last dose) • Ear collection: PK, Cytokine, MPO, Thickness • Back skin collection, scoring and thickness measurement • Histopathology (optional)
The dorsal posterior area (2 cm×2 cm) of animals is depilated using a hair trimmer. 5% Imiquimod cream: 50 mg/animal (40 mg on the shaved back+5 mg each on the inner part of right and left ear) QD is applied on days 0 to 5 (Groups 1-4).
The body weight is recorded individually for all animals at receipt, day of randomization, prior to treatment, and once in two days thereafter. The animals are observed for mortality at regular intervals.
2 hrs post compound treatment on day 6, all the animals are euthanized, and ear tissues are collected. The right ear is flash frozen in liquid nitrogen and stored at −80° C. until homogenization for MPO and cytokine estimation.
The half of the left ear is used for drug concentration measurement. The other half of the left ear tissue is used for histopathology. The back skin is collected for visual assessment (scoring) and histopathology.
MPO analysis: Snap frozen ear tissue samples are homogenized in 1× assay buffer provided in the kit. The homogenates are centrifuged at 8000 g for 10 minutes in a refrigerated centrifuge. The supernatants are discarded, and the pellet is resuspended in solubilisation buffer (1× assay buffer containing 0.5% HTABr). The samples are homogenized and subjected to three rounds of freeze thaw followed by brief sonication for 10s. The samples are centrifuged at 12,000 g for 10 minutes in a refrigerated centrifuge and the resulting supernatants are analysed for MPO levels based on a fluorometric detection kit. The Kit utilizes a non-fluorescent detection reagent, which is oxidized in the presence of hydrogen peroxide and MPO to produce its fluorescent analogue. (Enzo Life Sciences; ADI-907-029).
Histopathology: At study termination, posterior dorsal skin and ear skin samples are collected. Skin samples are processed using routine histopathological methods and 4-5 μm paraffin sections are prepared. Tissue sections (3 serial sections/animal) are stained with Hematoxylin and eosin (H&E) to evaluate acanthosis, hyper/parakeratosis and inflammatory cellular infiltration in dermis. Severity of lesions are assessed semi quantitatively on a scale of 0-4 by two independent pathologists (0—normal, 1—mild degree, 2—moderate degree, 3—severe degree and 4—extensive or multiple locations) for each parameter in a blinded manner.

Structure (SMILES) | MPO activity in ear tissue homogenates (day 6, topical 0.5%, vs IMQ control) | Back skin thickness (day 6 at termination, topical 0.5%, vs IMQ control) | Cumulative clinical scores (erythema, skin thickness, scales) (topical 0.5%, back skin, maximum score 12, vs IMQ control) | Ear thickness (topical 0.5%, daily, vs IMQ control) | Overall cumulative HP scores of ear skin (topical 0.5%, maximum score 16, vs IMQ control) | Spleen weight or normalized spleen weight (topical 0.5%, vs IMQ control) | Cytokine levels in ear tissue homogenates (topical treatment, vs IMQ control) | Body weight / body weight loss (mouse, in vivo)
N#Cc1ccc(Oc2ccc3c(c2)COB3O)cc1 [Crisaborole, reference compound] | do not show significant inhibition | do not show significant reduction | significant reduction in the cumulative clinical scores on day 6 | significant reduction in ear thickness on day 6 | significant reduction | do not show significant reduction | significant reduction in few of the proinflammatory cytokines | –
C[C@@H]1C[C@H]2[C@@H]3CCC4=CC(=O)C=C[C@]4(C)[C@@]3(F)[C@@H](O)C[C@]2(C)[C@@]1(O)C(=O)CO [Dexamethasone, reference compound] | – | – | – | – | – | – | – | significant body weight loss

Source: patent US12622915B2, “Methods of treating PDE IV-mediated diseases or conditions” (Vanda Pharmaceuticals Inc., priority 2020, dated 2026)
